Test results from patent US20150359798A1, “PIPERAZINYL DERIVATIVE REDUCES HIGH-FAT DIET-INDUCED ACCUMULATION OF FAT IN THE LIVERS, […]” (priority 2011, published 2015).

Tests used:
mice fed with HFD = assay: HFD-fed mice, 8 weeks, gavage: serum/liver lipids, body weight, food intake; type: in vivo; conditions: HFD mice, 8 weeks
Description: In the 8 week experiment, C57BL/6J male mice (21-22 g), after fasting, were fed a HFD as a model of hyperlipidemia for 8 weeks. During the 2 month experiments, mice fasted for one night before the experiment was changed from a standard diet (STD) to a HFD and then the mice were randomly divided into 5 groups, including 2 control and 3 treatment groups. Six mice were used in each group. […] Liver from the protection group supplemented with KMUP-1 HCl (1 mg/kg/day) were used to determine the HMG CoA reductase expression.
Within 2 months, the 3 day food intake average for each animal was measured. The weight gain and plasma lipid levels of each group were determined and compared to the non-treatment control group. Mouse blood was collected during the daytime by cardiac puncture followed by centrifugation at 90 g (Benchtop Centrifuge, U.S.A.) to separate the serum, and frozen at −80° C., for biochemical analysis using a Hitachi Clinical Analyzer 7070 (Hitachi High-Technologies Co. Tokyo, Japan). Agents used in the assays were Obtained from Merck & Co. (Kenilworth, N.J., U.S.A.). Triglyceride (TG), total cholesterol, HDL cholesterol and LDL cholesterol in mouse serum were measured by methods used in the clinic. To measure the hepatic TG, isolated liver were cut into small chips.

HSL [1] = assay: IHC staining of HSL in steatohepatitis liver; type: in vivo, mice; conditions: after treatment or protection
Description: (§1) In the 14-week experiment, mice were fed a HFD from week 1 to week 14. During the 3 month experiments, KMUP-1 HCl (2.5 mg) was added to 200 ml tap water and) and drink for 14 weeks or for the last 6 weeks on mice or obese mice fed HFD, separately. 5 mice had free access to drinking water from week 1 to week 14 (protective group) or from week 8 to week 14 (treatment group). Tap water was used to normalize mineral nutrition (Scheme A).
(§2) For IHC of MMP-9/TNFα, HSL/p-HSL/ATGL and eNOS/IL-10, antigen retrieval of de-paraffinated sections was performed in Dako target retrieval solution, pH 9.0, in a vegetable steamer followed by the quenching of endogenous peroxidase activity with 3.0% H2O2 in methanol. Sections were then incubated with specific primary antibodies overnight at 4° C. in a humidified chamber. The antibodies used included rabbit polyclonal anti-eNOS (1:50 dilution) (Abcam, Cambridge, UK) or rabbit monoclonal anti-cleaved caspase-3 (1:50 dilution) (Cell Signaling, USA). The sections were then examined using a DAKO REAL EnVision™ Detection System kit (DAKO, Carpinteria, Calif.) and counterstained with hematoxylin. Images were obtained through a Nikon Eclipse TE200-S microscope.

HMG CoA reductase = HMG CoA reductase expression in HepG2 cells (Western blotting); type: cell-based
Description: The HepG2 hepatoma cell line was purchased from the American Type Culture Collection (ATCC; Manassas, Va., U.S.A.). Cells were cultured in DMEM. The culture media was supplemented with 5% heat-Inactivated FBS, penicillin (100 U/mL) and streptomycin (100 μg/mL). Cells were grown in a humidified atmosphere containing 5% CO2 at 37° C., in which the oxygen tension in the incubator was held at 140 mmHg (20% O2, v/v; normoxic conditions).
HepG2 cells were treated with various concentrations of drugs for 24 hours. Reactions were terminated by washing twice with cold PBS, and the cells were then harvested, Proteins in the whole-cell lysate were homogenized in an ice-cold lysis buffer and a protease inhibitor (Sigma-Aldrich, St. Louis, Mo., U.S.A.). The homogenate was centrifuged at 90, 000 g for 15 minutes at 4° C., and supernatant was recovered as the total cellular protein. Cytosolic and membrane fractions of HepG2 cells were prepared using a. CNM (Cytosol Nuclear Membrane) compartment protein extraction kit (BioChain Institute Inc., Hayward, Calif., U.S.A.) according to the manufacturer's instructions. All of the fractionated protein solutions were stored at −80° C. until analysis. To measure the expression levels of proteins by drugs, the total cell protein was extracted after incubation with treatments for 24 hours and then Western blotting analysis was performed as described previously.

TNF-α [2] = assay: IHC staining of TNF-α in epididymal fat pads; type: in vivo, mice; conditions: protection, 2.5 mg/kg/day
Description: as §2

HSL [3] = assay: HSL immunoreactivity in HepG2 cells; type: cell-based
PKG [4] = assay: PKG expression and immunoreactivity in HepG2 cells; type: cell-based
ATGL = assay: IHC staining of ATGL in steatohepatitis liver; type: in vivo, mice; conditions: more prominent in protection than treatment groups
Description: as §1, §2

epididymal fat pads = assay: H&E staining, weight and cell diameter of epididymal fat pads; type: in vivo, mice
Description: as §1
Mice liver and epididymal fat pads were cut and soaked in formalin, dehydrated through graded alcohols and embedded in paraffin. Specimens of liver tissues and epididymal fat pads fixed with formalin (4%) were embedded in paraffin for one hour at 4° C., cut into […] sections, and subjected to H&E staining before examination by light microscope. In heart tissues, the 4-μm-thick paraffin sections were cut from paraffin-embedded tissue blocks and de-paraffinized by immersion in xylene and rehydrated. The slices were then dyed with H&E. After gently rinsing with water, each slide was dehydrated through graded alcohols and finally soaked in xylene twice.

eNOS = assay: Table 3 eNOS (% of control); type: cell-based; conditions: control group = 100 (%)
PKG [5] = assay: Hepatic PKG expression (14-week experiment); type: in vivo, mice; conditions: drinking KMUP-1; protection and treatment groups
TNF-α [6] = assay: IHC staining of TNF-α in steatohepatitis liver; type: in vivo, mice; conditions: 2.5 mg/kg/day, 14 weeks (protection) and 6 weeks (treatment)
Description: as §1, §2

PKA = PKA expression and immunoreactivity in HepG2 cells; type: cell-based
[7] = 10, 20, 40 µM, in the presence of LDL (500 μg/mL)

## Cn1c(=O)c2c(ncn2CCN2CCN(c3ccccc3Cl)CC2)n(C)c1=O [KMUP-1, 7-[2-[4-(2-chlorophenyl)piperazinyl]ethyl]-1,3-dimethyl xanthine]
Mice fed with HFD
  HDL cholesterol level: significantly increased
  HFD-induced hypercholesterolemia: significantly improved
Mice fed with HFD; 2.5 mg/kg
  HDL cholesterol: 103.6 ± 4.2 mg/dL
  LDL cholesterol: 14.2 ± 1.4 mg/dL
  TG in serum: 74.5 ± 5.1 mg/dL
  TG of liver: 28.4 ± 3.6 mg/dL
  Tot. chol. (total cholesterol): 133.0 ± 5.1 mg/dL
  final BW (Body weight): 25.7 ± 0.7 g
Mice fed with HFD; 5 mg/kg
  HDL cholesterol: 118.3 ± 5.7 mg/dL
  LDL cholesterol: 14.2 ± 2.2 mg/dL
  TG in serum: 72.7 ± 4.7 mg/dL
  TG of liver: 26.12 ± 3.1 mg/dL
  Tot. chol. (total cholesterol): 125.5 ± 9.8 mg/dL
  final BW (Body weight): 24.3 ± 0.5 g
HSL [1]
  HSL (IHC, liver): partly increased
HMG CoA reductase; HepG2, 10^−5M
  mevalonate (100 μM)-inhibited HMG CoA reductase expression: prevented
HMG CoA reductase; HepG2, serum/vehicle-containing medium, 10^−9-10^−5M, 24 hours
  HMG CoA reductase expression: concentration-dependently increased
TNF-α [2]
  IHC staining of TNF-α in epididymal fat pads: inhibited
HSL [3]
  HSL immunoreactivity (green fluorescence): increased
PKG [4]; [7]
  expression of PKG: increased
PKG [4]; data not shown
  PKG immunoreactivity: not significantly affected
ATGL
  ATGL lipolysis (IHC, liver): induced
Epididymal fat pads; 2.5 mg/kg/day for 14 weeks
  epididymal fat pad weight: significantly reduced
  fat cell diameter: significantly reduced
Epididymal fat pads; protection, 2.5 mg/kg
  HFD-induced hypertrophy/hyperplasia of epididymal fat pads (H&E): inhibited
eNOS; 0.1 μM
  eNOS: 121.6 ± 16.5%
eNOS; 1.0 μM
  eNOS: 132.7 ± 15.2%
eNOS; 10 μM
  eNOS: 138.9 ± 15.2%
PKG [5]
  hepatic PKG expression: promote
TNF-α [6]
  TNF-α immunohistochemistry on fatty liver slices: inhibited partial
PKA
  PKA immunoreactivity (green fluorescence): increased
PKA; 1, 10, 100 μM
  oxLDL (200 μg/mL)-induced reduction of PKA expression: reversed
PKA; [7]
  PKA protein expression: could not significantly affect
